# Measured values from patent US20050276862A1, “Iron sequestering antimicrobial composition” (priority 2004, published 2005).
# Experiment: Log stability constants of ligands for metal ions (literature)
# Settings: Fe(III) minus Ca
# Text: A measure of the “affinity” of metal-ion sequestrants for various metal-ions is given by the stability constant (also often referred to as critical stability constants, complex formation constants, equilibrium constants, or formation constants) of that sequestrant for a given metal-ion. […] The ability of a specific molecule or ligand to sequester a metal-ion may depend also upon the pH, the concentrations of interfering ions, and the rate of complex formation (kinetics). Generally, however, the greater the stability constant, the greater the binding affinity for that particular metal-ion. Often the stability constants are expressed as the natural logarithm of the stability constant. Herein the stability constant for the reaction of a metal-ion (M) and a sequestrant or ligand (L) is defined as follows: M+n L⇄MLn
# where the stability constant is βn=[MLn]/[M][L]^n, wherein [MLn] is the concentration of “complexed” metal-ion, [M] is the concentration of free (uncomplexed) metal-ion and [L] is the concentration of free ligand. The log of the stability constant is log βn, and n is the number of ligands which coordinate with the metal. It follows from the above equation that if βn is very large, the concentration of “free” metal-ion will be very low. […]
smiles,measurement,value
"O=C(O)CN(CCN(CC(=O)O)CC(=O)O)CCN(CC(=O)O)CC(=O)O [DTPA, diethylenetriaminepentaacetic acid]",difference between the log stability constants (specificity),17.2
